Data reported in paper PMC3702004, “Comparison of Intake and Systemic Relative Effect Potencies of Dioxin-like Compounds in Female Mice after a Single Oral Dose” (Environmental Health Perspectives, 2013).

Test: Body and organ weight, hepatic lipid content
Assay type: in vivo, female C57BL/6 mice
Settings: day 3; for % lipid / g liver: pooled liver samples
Procedure: Animals. Eight-week-old female C57BL/6 mice (Harlan laboratories, Venray, the Netherlands) were randomly assigned to treatment groups (six animals per group) and allowed to acclimate for 1.5 weeks. The animals were housed in groups in standard cages and conditions (23 ± 2°C, 50–60% relative humidity, 12-hr dark/light cycle) with free access to food and water. Mice received a single dose of test compound by oral gavage at a dosing volume of 10 mL/kg body weight (BW). Mice treated with corn oil vehicle (10 mL/kg BW) served as controls. For each congener, five different doses were administered, ranging from 0.5–100 μg/kg BW (TCDD) to 5,000–500,000 µg/kg BW (PCB-153). Detailed information on doses is provided in Supplemental Material, Table S1 (http://dx.doi.org/10.1289/ehp.1206336). On day 3 after dosing, animals were euthanized by CO2/O2 asphyxiation, and blood was immediately collected from the abdominal aorta. The liver, thymus, spleen, and adipose tissue were removed, weighed (liver, thymus, and spleen), snap frozen, and stored at –80°C. All animal treatments were performed with permission of the Animal Ethical Committee (DEC Utrecht) and performed according to the [Law on Animal Experiments (1977)]. Animals were treated humanely and with regard for alleviation of suffering.
Compound analysis. Adipose and liver tissues samples were homogenized in Na2SO4, followed by extraction and clean-up in one step, and then eluted with 200 mL 1:1 hexane:dichloromethane on an open column packed with 40% wt/wt H2SO4-impregnated silica and KOH-silica. Blood plasma samples were extracted on an open column using Chem-Elut (Agilent Technologies, Santa Clara, CA, USA) and then NaCl eluted with 75 mL 3:2 hexane:2-propanol. Clean-up was performed using a miniaturized silica column (as described above), and samples were eluted using 30 mL hexane. Because the samples typically contained high levels of the analytes, only a small fraction was evaporated and analyzed. Prior to evaporation, we spiked a fraction of the samples with ^13C-labeled standards. We checked potential loss of analytes during extraction and clean-up by reextracting the samples using the identical protocol used for the samples. […] Tetradecane was added prior to evaporation. Sample analysis followed the U.S. Environmental Protection Agency Method 1613 ([U.S. Environmental Protection Agency 1994]) using single ion monitoring mode on an Agilent 6809N gas chromatograph (Agilent Technologies) coupled with a Micromass Ultima Autospec Ultra high-resolution mass spectrometer (HRMS; Waters Corp., Milford, MA, USA). Compounds were separated on a 60 m × 0.25 mm DB5-MS column ([…]; J&W Scientific, Folsom, CA, USA). The HRMS was operated with electron impact ionization with electron energy of 35 eV and an ion source temperature of 250°C. To reduce the number of analyses, samples were pooled before clean-up. […] This method was used because full congener–specific separation could be achieved on the high-resolution GC–HRMS. For lipid determination, samples were evaporated to dryness after the extraction step, and the amount of lipids was determined gravimetrically. Concentrations were calculated based on lipid weight and wet weight. The analysis of samples for the PCB-118 5,000 μg/kg BW dose failed during the procedure; thus analysis for this group could not be completed.
Statistical analysis. Statistical significant differences of the means and variances were determined using one-way analysis of variance (ANOVA) followed by Tukey-Kramer multiple comparisons. Differences were considered statistically significant at p < 0.05. Statistical calculations were performed using GraphPad 6.01 (GraphPad Software Inc.).

Clc1cc2c(cc1Cl)Oc1cc(Cl)c(Cl)cc1O2 [TCDD, 2,3,7,8-tetrachlorodibenzodioxin, reference compound]
Body weight (oral dose 0.5 µg/kg bw): 19.3 ± 0.8 gram
Liver weight (oral dose 0.5 µg/kg bw): 5.08 ± 0.27 % of bw
Spleen weight (oral dose 0.5 µg/kg bw): 0.34 ± 0.05 % of bw
Thymus weight (oral dose 0.5 µg/kg bw): 0.28 ± 0.06 % of bw
% lipid / g liver (oral dose 0.5 µg/kg bw): 5.3%
Body weight (oral dose 2.5 µg/kg bw): 19.2 ± 1.3 gram
Liver weight (oral dose 2.5 µg/kg bw): 5.37 ± 0.20 % of bw
Spleen weight (oral dose 2.5 µg/kg bw): 0.32 ± 0.05 % of bw
Thymus weight (oral dose 2.5 µg/kg bw): 0.23 ± 0.05 % of bw
% lipid / g liver (oral dose 2.5 µg/kg bw): 7.2%
Body weight (oral dose 10 µg/kg bw): 18.8 ± 1.1 gram
Liver weight (oral dose 10 µg/kg bw): 5.49 ± 0.37 % of bw
Spleen weight (oral dose 10 µg/kg bw): 0.30 ± 0.04 % of bw
Thymus weight (oral dose 10 µg/kg bw): 0.18 ± 0.06 % of bw
% lipid / g liver (oral dose 10 µg/kg bw): 7.4%
Body weight (oral dose 25 µg/kg bw): 19.6 ± 0.8 gram
Liver weight (oral dose 25 µg/kg bw): 5.86 ± 0.22 % of bw
Spleen weight (oral dose 25 µg/kg bw): 0.34 ± 0.02 % of bw
Thymus weight (oral dose 25 µg/kg bw): 0.23 ± 0.02 % of bw
Body weight (oral dose 100 µg/kg bw): 19.4 ± 0.6 gram
Liver weight (oral dose 100 µg/kg bw): 6.09 ± 0.44 % of bw
Spleen weight (oral dose 100 µg/kg bw): 0.34 ± 0.02 % of bw
Thymus weight (oral dose 100 µg/kg bw): 0.19 ± 0.04 % of bw
Dose with significant increase in liver weight vs vehicle controls (single oral dose): ≥ 10 µg/kg BW
Dose with statistically significant decrease in relative thymus weight vs vehicle controls (single oral dose): ≥ 2.5 μg/kg BW
